In patent US20020035061A1, “COMPOSITIONS AND METHODS FOR TREATING INFECTIONS USING CATIONIC PEPTIDES ALONE OR IN COMBINATION WITH ANTIBIOTICS” (priority 1996, published 2002):
In brackets after ≈: the same amount, converted by molar mass. Several values for one entry are separate records, joined by “and”; a condition that tells them apart may be missing. Identical values can stand only once. Like-named read-outs stand apart in the source and are kept apart here.

Experiments:
Assay in all cases: microbe, parasite or virus in culture
Format in all cases: cell-based
bacterial isolates = conditions: for Peptide MIC Alone: 4. Gentamicin; for FIC: peptide + Gentamicin
[1] = tested on: inherently resistant microorganisms; conditions: for Peptide MIC Alone: Amikacin section; for FIC: peptide + Amikacin
[2] = tested on: microorganisms with acquired resistance; conditions: for Peptide MIC Alone: Gentamicin section; for FIC: peptide + Gentamicin
[3] = tested on: vancomycin / teicoplanin resistant enterococci
[4] = Enterococcus faecalis, read-out: Amikacin MIC Alone, E. faecalis EFS008
[5] = Enterococcus faecium, read-out: Amikacin MIC Alone, E. faecium EFM004
[6] = Pseudomonas aeruginosa, read-out: Amikacin MIC Alone, P. aeruginosa PA022
[7] = S. maltophilia (strain line r400 not shown)

NCC[C@H](O)C(=O)N[C@@H]1C[C@H](N)[C@@H](O[C@H]2O[C@H](CN)[C@@H](O)[C@H](O)[C@H]2O)[C@H](O)[C@H]1O[C@H]1O[C@H](CO)[C@@H](O)[C@H](N)[C@H]1O [Amikacin]
Amikacin MIC Alone (bacterial isolates; A. baumannii ABI001): 32 µg/mL | MIC (bacterial isolates; Acinetobacter baumannii, read-out: Amikacin MIC Alone, A. baumannii ABI001): 64 µg/mL (≈ 109 µM) | MIC (bacterial isolates; Acinetobacter baumannii, read-out: Amikacin MIC Alone, A. baumannii ABI003): 16 µg/mL (≈ 27.3 µM) | Amikacin MIC Alone (bacterial isolates; B. cepacia BC005): 128 µg/mL | MIC (bacterial isolates; Burkholderia cepacia, read-out: Amikacin MIC Alone, B. cepacia BC003): 32 µg/mL (≈ 54.6 µM) | MIC (bacterial isolates; Burkholderia cepacia, read-out: Amikacin MIC Alone, B. cepacia BC005): 64 µg/mL (≈ 109 µM) | Amikacin MIC Alone (bacterial isolates; E. faecalis EFS008): 64 µg/mL | Amikacin MIC Alone (bacterial isolates; E. faecium EFM004): >128 µg/mL | MIC (bacterial isolates; [4]): 32 µg/mL (≈ 54.6 µM) | MIC (bacterial isolates; [5]): 128 µg/mL (≈ 219 µM) | MIC (bacterial isolates; Escherichia coli, read-out: Amikacin MIC Alone, E. coli ECO022): 16 µg/mL (≈ 27.3 µM) | Amikacin MIC Alone (bacterial isolates; P. aeruginosa PA022): 128 µg/mL | MIC (bacterial isolates; [6]): 64 µg/mL (≈ 109 µM) | MIC (bacterial isolates; Pseudomonas aeruginosa, read-out: Amikacin MIC Alone, P. aeruginosa PA037): 16 µg/mL (≈ 27.3 µM) | Amikacin MIC Alone (bacterial isolates; S. epidermidis SE003): 64 µg/mL | Amikacin MIC Alone (bacterial isolates; S. maltophilia SMA018): >128 µg/mL | Amikacin MIC Alone (bacterial isolates; S. maltophilia SMA037): 64 µg/mL | MIC (bacterial isolates; Staphylococcus aureus, MRSA, read-out: Amikacin MIC Alone, S. aureus SA014 MRSA): 32 µg/mL (≈ 54.6 µM) | MIC (bacterial isolates; Staphylococcus aureus, MRSA, read-out: Amikacin MIC Alone, S. aureus SA025 MRSA): 32 µg/mL (≈ 54.6 µM) | MIC (bacterial isolates; Staphylococcus epidermidis, read-out: Amikacin MIC Alone, S. epidermidis SE002): 64 µg/mL (≈ 109 µM) | MIC (bacterial isolates; Staphylococcus epidermidis, read-out: Amikacin MIC Alone, S. epidermidis SE003): 32 µg/mL (≈ 54.6 µM) | MIC (bacterial isolates; Stenotrophomonas maltophilia, read-out: Amikacin MIC Alone, S. maltophilia SMA018): 128 µg/mL (≈ 219 µM) | MIC (bacterial isolates; Stenotrophomonas maltophilia, read-out: Amikacin MIC Alone, S. maltophilia SMA021): 128 µg/mL (≈ 219 µM) | MIC (bacterial isolates; Stenotrophomonas maltophilia, read-out: Amikacin MIC Alone, S. maltophilia SMA022): > 128 µg/mL | MIC (bacterial isolates; Stenotrophomonas maltophilia, read-out: Amikacin MIC Alone, S. maltophilia SMA036): > 128 µg/mL | MIC (bacterial isolates; Stenotrophomonas maltophilia, read-out: Amikacin MIC Alone, S. maltophilia SMA037): 128 µg/mL (≈ 219 µM) | MIC (bacterial isolates; Stenotrophomonas maltophilia, read-out: Amikacin MIC Alone, S. maltophilia SMA060): > 128 µg/mL | MIC (bacterial isolates; Stenotrophomonas maltophilia, read-out: Amikacin MIC Alone, S. maltophilia SMA063): > 128 µg/mL | MIC (bacterial isolates; Stenotrophomonas maltophilia, read-out: Amikacin MIC Alone, S. maltophilia SMA064): > 128 µg/mL | MIC ([1]; Acinetobacter baumannii, read-out: Amikacin MIC + Peptide, A. baumannii, peptide Deber A2KA2): 16 µg/mL | MIC ([1]; Acinetobacter baumannii, read-out: Amikacin MIC + Peptide, A. baumannii, peptide MBI 11B16CN): 4 µg/mL | MIC ([1]; Acinetobacter baumannii, read-out: Amikacin MIC + Peptide, A. baumannii, peptide MBI 27): 16 µg/mL | MIC ([1]; Acinetobacter baumannii, read-out: Amikacin MIC + Peptide, A. baumannii, peptide MBI 29F1): 16 µg/mL | MIC ([1]; Acinetobacter baumannii, read-out: Amikacin MIC Alone, A. baumannii): 32 µg/mL (≈ 54.6 µM) | Amikacin MIC + Peptide ([1]; B. cepacia, peptide MBI 29A3): 32 µg/mL | MIC ([1]; Burkholderia cepacia, read-out: Amikacin MIC + Peptide, B. cepacia, peptide MBI 27): 16 µg/mL | MIC ([1]; Burkholderia cepacia, read-out: Amikacin MIC + Peptide, B. cepacia, peptide MBI 29A3): 16 µg/mL | Amikacin MIC + Peptide ([1]; S. aureus MRSA, peptide MBI 11B16CN): 4 µg/mL | Amikacin MIC + Peptide ([1]; S. maltophilia, peptide MBI 11B16CN): 4 µg/mL | Amikacin MIC + Peptide ([1]; S. maltophilia, peptide MBI 21A2): 16 µg/mL | Amikacin MIC + Peptide ([1]; S. maltophilia, peptide MBI 26): 16 µg/mL | Amikacin MIC + Peptide ([1]; S. maltophilia, peptide MBI 29A3): 16 µg/mL | MIC ([1]; Staphylococcus aureus, MRSA, read-out: Amikacin MIC + Peptide, S. aureus MRSA, peptide Deber A2KA2): 0.125 µg/mL | MIC ([1]; Staphylococcus aureus, MRSA, read-out: Amikacin MIC + Peptide, S. aureus MRSA, peptide MBI 11B16CN): 8 µg/mL | MIC ([1]; Staphylococcus aureus, MRSA, read-out: Amikacin MIC + Peptide, S. aureus MRSA, peptide MBI 21A2): 2 µg/mL | MIC ([1]; Staphylococcus aureus, MRSA, read-out: Amikacin MIC + Peptide, S. aureus MRSA, peptide MBI 27): 16 µg/mL | MIC ([1]; Staphylococcus aureus, MRSA, read-out: Amikacin MIC + Peptide, S. aureus MRSA, peptide MBI 29F1): 16 µg/mL | MIC ([1]; Staphylococcus aureus, MRSA, read-out: Amikacin MIC Alone, S. aureus MRSA): 32 µg/mL (≈ 54.6 µM) | MIC ([1]; Stenotrophomonas maltophilia, read-out: Amikacin MIC + Peptide, S. maltophilia, peptide MBI 11B16CN): 8 µg/mL | MIC ([1]; Stenotrophomonas maltophilia, read-out: Amikacin MIC + Peptide, S. maltophilia, peptide MBI 21A2): 8 µg/mL | MIC ([1]; Stenotrophomonas maltophilia, read-out: Amikacin MIC + Peptide, S. maltophilia, peptide MBI 26): 8 µg/mL | MIC ([1]; Stenotrophomonas maltophilia, read-out: Amikacin MIC + Peptide, S. maltophilia, peptide MBI 29A3): 8 µg/mL | MIC ([1]; Stenotrophomonas maltophilia, read-out: Amikacin MIC + Peptide, S. maltophilia, peptide MBI 29F1): 8 µg/mL | MIC ([1]; Stenotrophomonas maltophilia, read-out: Amikacin MIC Alone, S. maltophilia): 128 µg/mL (≈ 219 µM) | MIC [2, 6]: 64 µg/mL (≈ 109 µM) | Amikacin MIC Alone ([3]; E. faecium EFM004): 64 µg/mL and >128 µg/mL | MIC [3, 4]: 64 µg/mL (≈ 109 µM) | MIC [3, 5]: 128 µg/mL (≈ 219 µM) | MIC ([3]; Enterococcus faecium, read-out: Amikacin MIC Alone, E. faecium EFM020): 32 µg/mL (≈ 54.6 µM)

KKAAAKAAAAAKAAWAAKAAAKKKK [Deber A2KA2, reference compound]
Peptide MIC Alone (bacterial isolates; A. baumannii ABI001): >128 µg/mL | Peptide MIC Alone (bacterial isolates; A. baumannii ABI002): >128 µg/mL | Peptide MIC Alone (bacterial isolates; A. calcoaceticus AC001): >128 µg/mL | Peptide MIC Alone (bacterial isolates; P. aeruginosa PA022): >128 µg/mL | Peptide MIC Alone (bacterial isolates; P. aeruginosa PA041): >128 µg/mL | Peptide MIC Alone (bacterial isolates; [7]): >128 µg/mL | Peptide MIC Alone (bacterial isolates; S. maltophilia SMA017): >128 µg/mL | Gentamicin MIC + Peptide (bacterial isolates; A. baumannii ABI001): 32 µg/mL | Peptide MIC + Gentamicin (bacterial isolates; A. baumannii ABI001): 8 µg/mL | Gentamicin MIC + Peptide (bacterial isolates; A. baumannii ABI002): 32 µg/mL | Peptide MIC + Gentamicin (bacterial isolates; A. baumannii ABI002): 0.125 µg/mL | Gentamicin MIC + Peptide (bacterial isolates; A. calcoaceticus AC001): 4 µg/mL | Peptide MIC + Gentamicin (bacterial isolates; A. calcoaceticus AC001): 16 µg/mL | Gentamicin MIC + Peptide (bacterial isolates; P. aeruginosa PA022): 16 µg/mL | Peptide MIC + Gentamicin (bacterial isolates; P. aeruginosa PA022): 4 µg/mL | Gentamicin MIC + Peptide (bacterial isolates; P. aeruginosa PA041): 8 µg/mL | Peptide MIC + Gentamicin (bacterial isolates; P. aeruginosa PA041): 0.125 µg/mL | Gentamicin MIC + Peptide (bacterial isolates; [7]): 64 µg/mL | Peptide MIC + Gentamicin (bacterial isolates; [7]): 0.125 µg/mL | Gentamicin MIC + Peptide (bacterial isolates; S. maltophilia SMA017): 64 µg/mL | Peptide MIC + Gentamicin (bacterial isolates; S. maltophilia SMA017): 0.125 µg/mL | FIC (bacterial isolates; A. baumannii ABI001): 0.53 | FIC (bacterial isolates; A. baumannii ABI002): 0.50 | FIC (bacterial isolates; A. calcoaceticus AC001): 0.56 | FIC (bacterial isolates; P. aeruginosa PA022): 0.52 | FIC (bacterial isolates; P. aeruginosa PA041): 0.50 | FIC (bacterial isolates; [7]): 0.50 | FIC (bacterial isolates; S. maltophilia SMA017): 0.50 | Peptide MIC + Amikacin ([1]; A. baumannii): 32 µg/mL | Peptide MIC Alone ([1]; A. baumannii): >128 µg/mL | Peptide MIC + Amikacin ([1]; S. aureus MRSA): 8 µg/mL | Peptide MIC Alone ([1]; S. aureus MRSA): 16 µg/mL | FIC ([1]; A. baumannii): 0.63 | FIC ([1]; S. aureus MRSA): 0.50 | Gentamicin MIC + Peptide ([2]; A. calcoaceticus AC001): 4 µg/mL | Peptide MIC + Gentamicin ([2]; A. calcoaceticus AC001): 16 µg/mL | Peptide MIC Alone ([2]; A. calcoaceticus AC001): >128 µg/mL | Gentamicin MIC + Peptide ([2]; P. aeruginosa PA041): 4 µg/mL | Peptide MIC + Gentamicin ([2]; P. aeruginosa PA041): 64 µg/mL | Peptide MIC Alone ([2]; P. aeruginosa PA041): >128 µg/mL | FIC ([2]; A. calcoaceticus AC001): 0.56 | FIC ([2]; P. aeruginosa PA041): 0.50 | Amikacin MIC + Peptide ([3]; E. faecalis EFS008): 8 µg/mL | Peptide MIC + Amikacin ([3]; E. faecalis EFS008): 16 µg/mL | Peptide MIC Alone ([3]; E. faecalis EFS008, Amikacin section): >128 µg/mL | FIC ([3]; peptide + Amikacin, E. faecalis EFS008): 0.19
